Source: US11000033B2, “Ketone or oxime compound, and herbicide” (NISSAN CHEMICAL CORPORATION, priority 2014, dated 2021)

Experiments:
Type in all cases: in vivo
[1] = test system: corn; assay: Test Example 5: effect on crop by foliage application, plastic box (symbol c); conditions: 320 g/ha, 3 weeks after application
Method in brief: (§1)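 Sterilized diluvial soil, plastic box (21 × 13 × 7 cm); spot sowing, ~1.5 cm soil cover; greenhouse 25–30° C.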

[2] = test system: Monochoria vaginalis; assay: Test Example 2: herbicidal activity, application during weed generation in submerged conditions (symbol C); conditions: Table 23; application herbicide amount 320 g/ha; grade 0-5 by criteria of Test Example 1
Method in brief: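 Paddy pot test, submerged (4 cm water), alluvial soil, mixed sowing; greenhouse 25–30° C. Emulsion formulation diluted to predetermined rate, applied onto floodwater at 1–2 leaf stage. Visual herbicidal rating at 3 wk post-treatment.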

[3] = test system: Avena fatua; assay: Test Example 5: herbicidal effect by foliage application, plastic box (symbol I); conditions: 320 g/ha, 3 weeks after application
Method in brief: (§2)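 Greenhouse foliar test: seedlings at 14 days, grown 25° C. to 30° C. in sterilized diluvial soil; compound applied as an aqueous dilution of an emulsion; response read 3 weeks after spraying.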

[4] = test system: Avena fatua; assay: Test Example 4: herbicidal effect by soil treatment (symbol I); conditions: application herbicide amount 320 g/ha
Method in brief: (§3)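 Seeds were sown in sterilized diluvial soil, covered with about 1.5 cm of soil, and the soil surface was sprayed with a water-diluted emulsion of the compound at a predetermined rate. Plants grew in a greenhouse at 25° C. to 30° C.; effects were scored visually 3 weeks after application.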

[5] = test system: Echinochloa oryzacola Vasing.; assay: Test Example 1: herbicidal activity, application before weed generation in submerged conditions (symbol A); conditions: application herbicide amount 320 g/ha
Method in brief: (§4)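 Steps: alluvial soil flooded to 4 cm; weed seeds sown together; rice seedlings (2.5 leaf) transplanted; diluted emulsion applied to water surface the same day as sowing; plants grown at 25–30 °C in greenhouse; herbicidal effect rated on a 0–5 scale at 3 weeks.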

[6] = test system: soybean; assay: Test Example 4: effect on crop by soil treatment (symbol d); conditions: application herbicide amount 320 g/ha
Method in brief: (§5)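 Crop seed is sown in spots together with several weed species in a box of sterilized diluvial soil. It is covered by about 1.5 cm of soil and kept in a greenhouse held between 25° C. and 30° C.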

[7] = test system: Setaria viridis; assay: Test Example 5: herbicidal effect by foliage application, plastic box (symbol G); conditions: 320 g/ha, 3 weeks after application
Method in brief: as §2

[8] = test system: Echinochloa crus-galli var. crus-galli; assay: Test Example 4: herbicidal effect by soil treatment (symbol H); conditions: application herbicide amount 320 g/ha
Method in brief: as §3

[9] = test system: Apera spica-venti; assay: Test Example 5: herbicidal effect by foliage application, plastic box (symbol L); conditions: 320 g/ha, 3 weeks after application
Method in brief: as §2

[10] = test system: beet; assay: Test Example 4: effect on crop by soil treatment (symbol f); conditions: application herbicide amount 320 g/ha
Method in brief: as §5

[11] = test system: Echinochloa crus-galli var. crus-galli; assay: Test Example 5: herbicidal effect by foliage application, plastic box (symbol H); conditions: 320 g/ha, 3 weeks after application
Method in brief: as §2

[12] = test system: rice; assay: Test Example 4: effect on crop by soil treatment (symbol b); conditions: application herbicide amount 320 g/ha
Method in brief: as §5

[13] = test system: Monochoria vaginalis; assay: Test Example 1: herbicidal activity, application before weed generation in submerged conditions (symbol C); conditions: application herbicide amount 320 g/ha
Method in brief: as §4

[14] = test system: Abutilon theophrasti; assay: Test Example 4: herbicidal effect by soil treatment (symbol M); conditions: application herbicide amount 320 g/ha
Method in brief: as §3

[15] = test system: rapeseed; assay: Test Example 5: effect on crop by foliage application, plastic box (symbol g); conditions: 320 g/ha, 3 weeks after application
Method in brief: as §1

[16] = test system: Apera spica-venti; assay: Test Example 4: herbicidal effect by soil treatment (symbol L); conditions: application herbicide amount 320 g/ha
Method in brief: as §3

| SMILES | c: corn, effect on crop (criteria of Test Example 1) [1] | Herbicidal effect grade, C: Monochoria vaginalis [2] | I: Avena fatua, herbicidal effect (criteria of Test Example 1) [3] | I: Avena fatua, herbicidal effect grade [4] | Herbicidal effect grade, A: Echinochloa oryzacola Vasing. [5] | d: soybean, effect on crop grade [6] | G: Setaria viridis, herbicidal effect (criteria of Test Example 1) [7] | H: Echinochloa crus-galli var. crus-galli, herbicidal effect grade [8] | L: Apera spica-venti, herbicidal effect (criteria of Test Example 1) [9] | f: beet, effect on crop grade [10] | H: Echinochloa crus-galli var. crus-galli, herbicidal effect (criteria of Test Example 1) [11] | b: directly sowed rice plant, effect on crop grade [12] | Herbicidal effect grade, C: Monochoria vaginalis [13] | M: Abutilon theophrasti, herbicidal effect grade [14] | g: rapeseed, effect on crop (criteria of Test Example 1) [15] | L: Apera spica-venti, herbicidal effect grade [16] | also measured |
| --- | --- | --- | --- | --- | --- | --- | --- | --- | --- | --- | --- | --- | --- | --- | --- | --- | --- |
| CON=C(C)CC1CC(O)=C(c2c(C)cc(OC)cc2C)C1=O (stereo not shown) [6-055] | 5 (Herbicidal ratio of 90% or more (almost completely withered)) | 0 (Herbicidal ratio of 5% or lower (almost no effect)) | 5 (Herbicidal ratio of 90% or more (almost completely withered)) | 0 (Herbicidal ratio of 5% or lower (almost no effect)) | 4 (Herbicidal ratio of 70% or higher and lower than 90%) | 0 (Herbicidal ratio of 5% or lower (almost no effect)) | 5 (Herbicidal ratio of 90% or more (almost completely withered)) | 5 (Herbicidal ratio of 90% or more (almost completely withered)) | 5 (Herbicidal ratio of 90% or more (almost completely withered)) | 0 (Herbicidal ratio of 5% or lower (almost no effect)) | 5 (Herbicidal ratio of 90% or more (almost completely withered)) | 5 (Herbicidal ratio of 90% or more (almost completely withered)) | 0 (Herbicidal ratio of 5% or lower (almost no effect)) | 3 (Herbicidal ratio of 40% or higher and lower than 70%) | 5 (Herbicidal ratio of 90% or more (almost completely withered)) | 5 (Herbicidal ratio of 90% or more (almost completely withered)) | – |
| CON=C(C)CC1CC(O)=C(c2c(C)cc(C)cc2SC)C1=O (stereo not shown) [6-075] | 4 (Herbicidal ratio of 70% or higher and lower than 90%) | 1 (Herbicidal ratio of 5% or higher and lower than 20%) | 5 (Herbicidal ratio of 90% or more (almost completely withered)) | 0 (Herbicidal ratio of 5% or lower (almost no effect)) | 4 (Herbicidal ratio of 70% or higher and lower than 90%) | 0 (Herbicidal ratio of 5% or lower (almost no effect)) | 0 (Herbicidal ratio of 5% or lower (almost no effect)) | 0 (Herbicidal ratio of 5% or lower (almost no effect)) | 5 (Herbicidal ratio of 90% or more (almost completely withered)) | 0 (Herbicidal ratio of 5% or lower (almost no effect)) | 2 (Herbicidal ratio of 20% or higher and lower than 40%) | 0 (Herbicidal ratio of 5% or lower (almost no effect)) | 2 (Herbicidal ratio of 20% or higher and lower than 40%) | 0 (Herbicidal ratio of 5% or lower (almost no effect)) | 3 (Herbicidal ratio of 40% or higher and lower than 70%) | 3 (Herbicidal ratio of 40% or higher and lower than 70%) | – |
| CON=C(C)CC1CC(O)=C(c2c(C)cc(C3CC3)cc2C)C1=O (stereo not shown) [6-050] | – | 0 (Herbicidal ratio of 5% or lower (almost no effect)) | – | 2 (Herbicidal ratio of 20% or higher and lower than 40%) | 3 (Herbicidal ratio of 40% or higher and lower than 70%) | 0 (Herbicidal ratio of 5% or lower (almost no effect)) | – | 4 (Herbicidal ratio of 70% or higher and lower than 90%) | – | 0 (Herbicidal ratio of 5% or lower (almost no effect)) | – | 5 (Herbicidal ratio of 90% or more (almost completely withered)) | 0 (Herbicidal ratio of 5% or lower (almost no effect)) | 0 (Herbicidal ratio of 5% or lower (almost no effect)) | – | 0 (Herbicidal ratio of 5% or lower (almost no effect)) | c: corn, effect on crop grade [1]: 4 (Herbicidal ratio of 70% or higher and lower than 90%); I: Avena fatua, herbicidal effect grade [3]: 2 (Herbicidal ratio of 20% or higher and lower than 40%); G: Setaria viridis, herbicidal effect grade [7]: 2 (Herbicidal ratio of 20% or higher and lower than 40%); L: Apera spica-venti, herbicidal effect grade [9]: 4 (Herbicidal ratio of 70% or higher and lower than 90%); H: Echinochloa crus-galli var. crus-galli, herbicidal effect grade [11]: 4 (Herbicidal ratio of 70% or higher and lower than 90%); g: rapeseed, effect on crop grade [15]: 5 (Herbicidal ratio of 90% or more (almost completely withered)) |
| CON=C(C)CC1CC(O)=C(c2c(C)cc(-c3cc(F)c(F)c(F)c3)cc2C)C1=O (stereo not shown) [6-104] | 5 (Herbicidal ratio of 90% or more (almost completely withered)) | 5 (Herbicidal ratio of 90% or more (almost completely withered)) | 5 (Herbicidal ratio of 90% or more (almost completely withered)) | – | 5 (Herbicidal ratio of 90% or more (almost completely withered)) | – | 5 (Herbicidal ratio of 90% or more (almost completely withered)) | – | 5 (Herbicidal ratio of 90% or more (almost completely withered)) | – | 5 (Herbicidal ratio of 90% or more (almost completely withered)) | – | 5 (Herbicidal ratio of 90% or more (almost completely withered)) | – | 4 (Herbicidal ratio of 70% or higher and lower than 90%) | – | Herbicidal effect grade, I: Avena fatua [4]: 4 (Herbicidal ratio of 70% or higher and lower than 90%); Effect on crop grade, d: soybean [6]: 0 (Herbicidal ratio of 5% or lower (almost no effect)); Herbicidal effect grade, H: Echinochloa crus-galli var. crus-galli [8]: 5 (Herbicidal ratio of 90% or more (almost completely withered)); Effect on crop grade, f: beet [10]: 4 (Herbicidal ratio of 70% or higher and lower than 90%); Effect on crop grade, b: directly sowed rice plant [12]: 5 (Herbicidal ratio of 90% or more (almost completely withered)); Herbicidal effect grade, M: Abutilon theophrasti [14]: 5 (Herbicidal ratio of 90% or more (almost completely withered)); Herbicidal effect grade, L: Apera spica-venti [16]: 5 (Herbicidal ratio of 90% or more (almost completely withered)) |
